Assays:
Experiment in all cases: relative viability (nuclei count vs DMSO), 5 days (fraction); higher = more cells survive
LCLC-103H = tested on: LCLC-103H
Procedure, shortened: (§1)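 Lung cancer cell lines, seeded in 1536-well plates, were treated the following day by pin tool with a single drug or with five library-drug doses (not always all listed) in √10 steps on top of a fixed anchor-drug dose. Cells were fixed and nuclei stained in one step after 5 days, and nuclei were counted. Relative viability is the nuclei count for treated wells divided by that for vehicle wells, reported as medians of duplicate plates.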

EBC-1 = tested on: EBC-1
Procedure, shortened: as §1

HCC-15 = tested on: HCC-15
Procedure, shortened: as §1

IA-LM = tested on: IA-LM
Procedure, shortened: as §1

NCI-H1299 = tested on: NCI-H1299
Procedure, shortened: as §1

EKVX = tested on: EKVX
Procedure, shortened: as §1

NCI-H1755 = tested on: NCI-H1755
Procedure, shortened: as §1

A549 = tested on: A549
Procedure, shortened: as §1

Calu-6 = tested on: Calu-6
Procedure, shortened: as §1

NCI-H1703 = tested on: NCI-H1703
Procedure, shortened: as §1

NCI-H1395 = tested on: NCI-H1395
Procedure, shortened: as §1

NCI-H1623 = tested on: NCI-H1623
Procedure, shortened: as §1

UMC-11 = tested on: UMC-11
Procedure, shortened: as §1

NCI-H1648 = tested on: NCI-H1648
Procedure, shortened: as §1

HCC-44 = tested on: HCC-44
Procedure, shortened: as §1

With `O=c1cc(-c2cccc3c2Sc2ccccc2S3)oc(N2CCOCC2)c1` + COc1cc2c(Oc3ccc(NC(=O)C4(C(=O)Nc5ccc(F)cc5)CC4)cc3F)ccnc2cc1OCCCN1CCOCC1 [Foretinib] (partner 0.25 µM) the relative viability (LCLC-103H; first compound 0.08 µM) was 0.721, the relative viability (LCLC-103H; first compound 0.253 µM) was 0.831 and the relative viability (LCLC-103H; first compound 0.8 µM) was 0.794. For the same compound, the relative viability (LCLC-103H; first compound 2.53 µM) was 0.71, the relative viability (LCLC-103H; first compound 8 µM) was 0.712 and the relative viability (EBC-1; first compound 0.08 µM) was 0.106. The relative viability (EBC-1; first compound 0.253 µM) was 0.0935, the relative viability (EBC-1; first compound 0.8 µM) was 0.104 and the relative viability (EBC-1; first compound 2.53 µM) was 0.105. It also gave a relative viability (EBC-1; first compound 8 µM) of 0.111, a relative viability (HCC-15; first compound 0.08 µM) of 1.01 and a relative viability (HCC-15; first compound 0.253 µM) of 1.14. For the same compound, the relative viability (HCC-15; first compound 0.8 µM) was 1, the relative viability (HCC-15; first compound 2.53 µM) was 1.08 and the relative viability (HCC-15; first compound 8 µM) was 1.11. The relative viability (IA-LM; first compound 0.08 µM) was 1.45, the relative viability (IA-LM; first compound 0.253 µM) was 1.33 and the relative viability (IA-LM; first compound 0.8 µM) was 1.32. The relative viability (IA-LM; first compound 2.53 µM) was 1.04, the relative viability (IA-LM; first compound 8 µM) was 1.23 and the relative viability (NCI-H1299; first compound 0.08 µM) was 1.09. For the same compound, the relative viability (NCI-H1299; first compound 0.253 µM) was 1.13, the relative viability (NCI-H1299; first compound 0.8 µM) was 1.15 and the relative viability (NCI-H1299; first compound 2.53 µM) was 1.09. It also gave a relative viability (NCI-H1299; first compound 8 µM) of 1.1, a relative viability (EKVX; first compound 0.08 µM) of 0.785 and a relative viability (EKVX; first compound 0.253 µM) of 0.892. For the same compound, the relative viability (EKVX; first compound 0.8 µM) was 0.751, the relative viability (EKVX; first compound 2.53 µM) was 0.734 and the relative viability (EKVX; first compound 8 µM) was 1.33. It also gave a relative viability (NCI-H1755; first compound 0.08 µM) of 0.861, a relative viability (NCI-H1755; first compound 0.253 µM) of 0.976 and a relative viability (NCI-H1755; first compound 0.8 µM) of 0.913. For the same compound, the relative viability (NCI-H1755; first compound 2.53 µM) was 0.899, the relative viability (NCI-H1755; first compound 8 µM) was 0.943 and the relative viability (A549; first compound 0.08 µM) was 1. For the same compound, the relative viability (A549; first compound 0.253 µM) was 1.06, the relative viability (A549; first compound 0.8 µM) was 1.15 and the relative viability (A549; first compound 2.53 µM) was 0.978. It also gave a relative viability (A549; first compound 8 µM) of 1.03, a relative viability (Calu-6; first compound 0.08 µM) of 0.916 and a relative viability (Calu-6; first compound 0.253 µM) of 0.963. For the same compound, the relative viability (Calu-6; first compound 0.8 µM) was 0.932, the relative viability (Calu-6; first compound 2.53 µM) was 0.867 and the relative viability (Calu-6; first compound 8 µM) was 0.799. For the same compound, the relative viability (NCI-H1703; first compound 0.08 µM) was 0.348, the relative viability (NCI-H1703; first compound 0.253 µM) was 0.421 and the relative viability (NCI-H1703; first compound 0.8 µM) was 0.273. The relative viability (NCI-H1703; first compound 2.53 µM) was 0.321, the relative viability (NCI-H1703; first compound 8 µM) was 0.334 and the relative viability (NCI-H1395; first compound 0.08 µM) was 0.934. The relative viability (NCI-H1395; first compound 0.253 µM) was 0.887, the relative viability (NCI-H1395; first compound 0.8 µM) was 1.07 and the relative viability (NCI-H1395; first compound 2.53 µM) was 0.938. For the same compound, the relative viability (NCI-H1395; first compound 8 µM) was 1.09, the relative viability (NCI-H1623; first compound 0.08 µM) was 0.834 and the relative viability (NCI-H1623; first compound 0.253 µM) was 0.865. For the same compound, the relative viability (NCI-H1623; first compound 0.8 µM) was 0.765, the relative viability (NCI-H1623; first compound 2.53 µM) was 0.866 and the relative viability (NCI-H1623; first compound 8 µM) was 0.917. For the same compound, the relative viability (UMC-11; first compound 0.08 µM) was 1.04, the relative viability (UMC-11; first compound 0.253 µM) was 1.03 and the relative viability (UMC-11; first compound 0.8 µM) was 1.19. The relative viability (UMC-11; first compound 2.53 µM) was 1.03 and the relative viability (UMC-11; first compound 8 µM) was 1.31.
`O=c1cc(N2CCOCC2)oc2c(-c3cccc4c3sc3ccccc34)cccc12` + COc1cccc2cc(-c3nc([C@H]4CC[C@H](C(=O)O)CC4)n4ncnc(N)c34)[nH]c12 [OSI-027] (partner 0.5 µM) was tested, and the relative viability (LCLC-103H; first compound 0.01 µM) was 0.446, the relative viability (LCLC-103H; first compound 0.03162 µM) was 0.462 and the relative viability (LCLC-103H; first compound 0.1 µM) was 0.513. For the same compound, the relative viability (LCLC-103H; first compound 0.3162 µM) was 0.474, the relative viability (LCLC-103H; first compound 1 µM) was 0.419 and the relative viability (NCI-H1648; first compound 0.01 µM) was 0.244. It also gave a relative viability (NCI-H1648; first compound 0.03162 µM) of 0.253, a relative viability (NCI-H1648; first compound 0.1 µM) of 0.239 and a relative viability (NCI-H1648; first compound 0.3162 µM) of 0.235. The relative viability (NCI-H1648; first compound 1 µM) was 0.235, the relative viability (HCC-15; first compound 0.01 µM) was 0.674 and the relative viability (HCC-15; first compound 0.03162 µM) was 0.807. The relative viability (HCC-15; first compound 0.1 µM) was 0.774, the relative viability (HCC-15; first compound 0.3162 µM) was 0.688 and the relative viability (HCC-15; first compound 1 µM) was 0.67. For the same compound, the relative viability (EKVX; first compound 0.01 µM) was 0.673, the relative viability (EKVX; first compound 0.03162 µM) was 0.715 and the relative viability (EKVX; first compound 0.1 µM) was 0.659. For the same compound, the relative viability (EKVX; first compound 0.3162 µM) was 0.719, the relative viability (EKVX; first compound 1 µM) was 0.749 and the relative viability (NCI-H1755; first compound 0.01 µM) was 0.785. It also gave a relative viability (NCI-H1755; first compound 0.03162 µM) of 0.691, a relative viability (NCI-H1755; first compound 0.1 µM) of 0.783 and a relative viability (NCI-H1755; first compound 0.3162 µM) of 0.673. It also gave a relative viability (NCI-H1755; first compound 1 µM) of 0.685, a relative viability (HCC-44; first compound 0.01 µM) of 0.524 and a relative viability (HCC-44; first compound 0.03162 µM) of 0.504. The relative viability (HCC-44; first compound 0.1 µM) was 0.588, the relative viability (HCC-44; first compound 0.3162 µM) was 0.694 and the relative viability (HCC-44; first compound 1 µM) was 0.463. For the same compound, the relative viability (NCI-H1395; first compound 0.01 µM) was 0.574, the relative viability (NCI-H1395; first compound 0.03162 µM) was 0.695 and the relative viability (NCI-H1395; first compound 0.1 µM) was 0.488. The relative viability (NCI-H1395; first compound 0.3162 µM) was 0.68, the relative viability (NCI-H1395; first compound 1 µM) was 0.707 and the relative viability (NCI-H1623; first compound 0.01 µM) was 0.45. For the same compound, the relative viability (NCI-H1623; first compound 0.03162 µM) was 0.477, the relative viability (NCI-H1623; first compound 0.1 µM) was 0.362 and the relative viability (NCI-H1623; first compound 0.3162 µM) was 0.407. The relative viability (NCI-H1623; first compound 1 µM) was 0.429, the relative viability (UMC-11; first compound 0.01 µM) was 0.472 and the relative viability (UMC-11; first compound 0.03162 µM) was 0.507. The relative viability (UMC-11; first compound 0.1 µM) was 0.496, the relative viability (UMC-11; first compound 0.3162 µM) was 0.526 and the relative viability (UMC-11; first compound 1 µM) was 0.45.

Source: the supplement of paper PMC10307832
